Test results from patent US20250320184A1 (SIRONAX LTD., priority 2022, published 2025).
Blank lines part the entries; values can stand above or below the compound they belong to.

Molecular target: T1, SARM1 (50-724) (Homo sapiens, UniProt Q6SZW1)
T1 sequence (Q6SZW1 50-724): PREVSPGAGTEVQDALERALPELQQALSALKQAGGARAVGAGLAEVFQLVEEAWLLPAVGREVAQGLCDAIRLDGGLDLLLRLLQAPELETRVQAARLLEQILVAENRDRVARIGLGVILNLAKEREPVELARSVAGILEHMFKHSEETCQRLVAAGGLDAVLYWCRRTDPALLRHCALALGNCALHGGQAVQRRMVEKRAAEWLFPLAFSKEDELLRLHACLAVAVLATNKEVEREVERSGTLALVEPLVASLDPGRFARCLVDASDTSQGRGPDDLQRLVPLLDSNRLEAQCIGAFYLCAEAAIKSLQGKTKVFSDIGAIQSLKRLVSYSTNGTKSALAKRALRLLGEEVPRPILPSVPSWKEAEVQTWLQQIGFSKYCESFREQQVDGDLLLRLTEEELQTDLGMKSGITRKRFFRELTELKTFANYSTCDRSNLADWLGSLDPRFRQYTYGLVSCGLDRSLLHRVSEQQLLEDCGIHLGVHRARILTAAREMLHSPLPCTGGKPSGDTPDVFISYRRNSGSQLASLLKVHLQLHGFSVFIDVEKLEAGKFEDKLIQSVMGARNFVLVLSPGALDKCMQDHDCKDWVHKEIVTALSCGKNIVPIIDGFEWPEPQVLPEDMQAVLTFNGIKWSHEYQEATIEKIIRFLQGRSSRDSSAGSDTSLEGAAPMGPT
Experiment: biochemical
Experimental: An enzymatic assay was performed in a 384-well plate using Dulbecco's phosphate-buffered saline (PBS) as the reaction buffer. […] The reaction was initiated by adding a mixture of 200 μM nicotinamide mononucleotide (NMN) as activator and 100 μM NAD^+ as substrate. After 1 h of incubation at room temperature, the reaction was terminated with 10 times volume of 70% acetonitrile, then centrifuged at 3800 rpm for 10 min.

SMILES: O=c1[nH]cnc2ccc(NS(=O)(=O)c3cccc(Cl)c3Cl)cc12 [Compound 23, 2,3-dichloro-N-(4-oxo-3,4-dihydroquinazolin-6-yl)benzenesulfonamide]
IC50: 100 to 500 nM

SMILES: Cc1c(F)cccc1S(=O)(=O)Nc1ccc2cnn(C(=O)OC(C)(C)C)c2c1 [Compound 24, tert-butyl 6-((3-fluoro-2-methylphenyl)sulfonamido)-1H-indazole-1-carboxylate]
IC50: > 1000 nM

SMILES: Cc1c(F)cccc1S(=O)(=O)Nc1ccc2cn[nH]c2c1 [Compound 25, 3-fluoro-N-(1H-indazol-6-yl)-2-methylbenzenesulfonamide]
IC50: 500 to 1000 nM

SMILES: Cc1cnc2cc(NS(=O)(=O)c3cccc(Cl)c3Cl)ccc2c1 [Compound 26, 2,3-dichloro-N-(3-methylquinolin-7-yl)benzenesulfonamide]
IC50: < 100 nM

SMILES: Cc1c(F)cccc1S(=O)(=O)Nc1cccc(N2CCCC2=O)c1 [Compound 27, 3-fluoro-2-methyl-N-(3-(2-oxopyrrolidin-1-yl)phenyl)benzenesulfonamide]
IC50: > 1000 nM

SMILES: Cc1c(F)cccc1S(=O)(=O)Nc1cccc(N2CCN(C)C2=O)c1 [Compound 28, 3-fluoro-2-methyl-N-(3-(3-methyl-2-oxoimidazolidin-1-yl)phenyl)benzenesulfonamide]
IC50: > 1000 nM

SMILES: Cc1nc2cc(NS(=O)(=O)c3cccc(Cl)c3Cl)ccc2s1 [Compound 29, 2,3-dichloro-N-(2-methylbenzo[d]thiazol-5-yl)benzenesulfonamide]
IC50: 100 to 500 nM

SMILES: Cc1cc(S(=O)(=O)Nc2ccc3c(c2)C(=O)NCC3)c(F)cc1F [Compound 30, 2,4-difluoro-5-methyl-N-(1-oxo-1,2,3,4-tetrahydroisoquinolin-7-yl)benzenesulfonamide]
IC50: 100 to 500 nM

SMILES: NC(=O)Cc1ccc(NS(=O)(=O)c2cccc(Cl)c2Cl)cc1 [Compound 31, 2-(4-((2,3-dichlorophenyl)sulfonamido)phenyl)acetamide]
IC50: 100 to 500 nM

SMILES: Cc1c(F)cccc1S(=O)(=O)Nc1ccc2scnc2c1 [Compound 32, N-(benzo[d]thiazol-5-yl)-3-fluoro-2-methylbenzenesulfonamide]
IC50: 100 to 500 nM

SMILES: O=S(=O)(Nc1ccc2sc(Cl)nc2c1)c1cccc(Cl)c1Cl [Compound 33, 2,3-dichloro-N-(2-chlorobenzo[d]thiazol-5-yl)benzenesulfonamide]
IC50: 100 to 500 nM

SMILES: O=C1NCCc2ccc(NS(=O)(=O)c3cc(F)c(F)c(F)c3)cc21 [Compound 34, 3,4,5-trifluoro-N-(1-oxo-1,2,3,4-tetrahydroisoquinolin-7-yl)benzenesulfonamide]
IC50: > 1000 nM

SMILES: O=C1NCCc2ccc(NS(=O)(=O)c3cc(F)c(F)cc3F)cc21 [Compound 35, 2,4,5-trifluoro-N-(1-oxo-1,2,3,4-tetrahydroisoquinolin-7-yl)benzenesulfonamide]
IC50: > 1000 nM

SMILES: O=C1NCCc2ccc(NS(=O)(=O)c3ccc(F)c(F)c3F)cc21 [Compound 36, 2,3,4-trifluoro-N-(1-oxo-1,2,3,4-tetrahydroisoquinolin-7-yl)benzenesulfonamide]
IC50: 100 to 500 nM

SMILES: Cc1ccc(Cl)c(S(=O)(=O)Nc2ccc3cc[nH]c(=O)c3c2)c1Cl [Compound 37, 2,6-dichloro-3-methyl-N-(1-oxo-2H-isoquinolin-7-yl)benzenesulfonamide]
IC50: < 100 nM

SMILES: O=C1NCCc2ccc(NS(=O)(=O)c3c(F)cc(F)cc3F)cc21 [Compound 38, 2,4,6-trifluoro-N-(1-oxo-3,4-dihydro-2H-isoquinolin-7-yl)benzenesulfonamide]
IC50: > 1000 nM

SMILES: Cc1c(Cl)cccc1S(=O)(=O)Nc1ccc2c(c1)C(=O)NCCC2 [Compound 39, 3-chloro-2-methyl-N-(1-oxo-2,3,4,5-tetrahydro-1H-benzo[c]azepin-8-yl)benzenesulfonamide]
IC50: < 100 nM

SMILES: Cc1c(Br)cccc1S(=O)(=O)Nc1ccc2c(c1)C(=O)NCCC2 [Compound 40, 3-bromo-2-methyl-N-(1-oxo-2,3,4,5-tetrahydro-1H-benzo[c]azepin-8-yl)benzenesulfonamide]
IC50: < 100 nM

SMILES: O=C1NCCCc2ccc(NS(=O)(=O)c3cccc(Cl)c3Cl)cc21 [Compound 41, 2,3-dichloro-N-(1-oxo-2,3,4,5-tetrahydro-1H-benzo[c]azepin-8-yl)benzenesulfonamide]
IC50: < 100 nM

SMILES: O=S(=O)(Nc1ccc2cccnc2c1)c1cccc(Cl)c1Cl [Compound 42, 2,3-dichloro-N-(quinolin-7-yl)benzenesulfonamide]
IC50: < 100 nM

SMILES: O=S(=O)(Nc1ccc2ccncc2c1)c1cccc(Cl)c1Cl [Compound 43, 2,3-dichloro-N-(isoquinolin-7-yl)benzenesulfonamide]
IC50: 100 to 500 nM

SMILES: O=S(=O)(Nc1ccc2ccccc2c1)c1cccc(Cl)c1Cl [Compound 44, 2,3-dichloro-N-(naphthalen-2-yl)benzenesulfonamide]
IC50: 100 to 500 nM

SMILES: Cc1c(Cl)cc(F)cc1S(=O)(=O)Nc1ccc2cc[nH]c(=O)c2c1 [Compound 45, 3-chloro-5-fluoro-2-methyl-N-(1-oxo-1,2-dihydroisoquinolin-7-yl)benzenesulfonamide]
IC50: < 100 nM

SMILES: Cc1c(F)cccc1S(=O)(=O)Nc1cccc(N2CCNC2=O)c1 [Compound 46, 3-fluoro-2-methyl-N-(3-(2-oxoimidazolidin-1-yl)phenyl)benzenesulfonamide]
IC50: > 1000 nM

SMILES: O=C1NCCc2cc(Cl)c(NS(=O)(=O)c3cccc(Cl)c3Cl)cc21 [Compound 47, 2,3-dichloro-N-(6-chloro-1-oxo-1,2,3,4-tetrahydroisoquinolin-7-yl)benzenesulfonamide]
IC50: > 1000 nM

SMILES: O=C1NCCc2ccc(NS(=O)(=O)N3CC4CCCC4C3)cc21 (stereo not drawn) [Compound 49, N-(1-oxo-3,4-dihydro-2H-isoquinolin-7-yl)-3,3a,4,5,6,6a-hexahydro-1H-cyclopenta[c]pyrrole-2-sulfonamide]
IC50: > 1000 nM

Results, then the compound that gave them:

IC50: 100 to 500 nM
SMILES: Cc1cccc(S(=O)(=O)Nc2ccc3c(c2)C(=O)NCC3)c1C [Compound 50, 2,3-dimethyl-N-(1-oxo-1,2,3,4-tetrahydroisoquinolin-7-yl)benzenesulfonamide]

IC50: > 1000 nM
SMILES: O=C1NCCc2ccc(NS(=O)(=O)c3cc(F)cc(F)c3F)cc21 [Compound 51, 2,3,5-trifluoro-N-(1-oxo-3,4-dihydro-2H-isoquinolin-7-yl)benzenesulfonamide]

IC50: 100 to 500 nM
SMILES: Cn1ncc2ccc(NS(=O)(=O)c3cccc(Cl)c3Cl)cc21 [Compound 52, 2,3-dichloro-N-(1-methyl-1H-indazol-6-yl)benzenesulfonamide]

IC50: 100 to 500 nM
SMILES: O=C1NCCc2ccc(NS(=O)(=O)c3cccc(F)c3Cl)cc21 [Compound 53, 2-chloro-3-fluoro-N-(1-oxo-1,2,3,4-tetrahydroisoquinolin-7-yl)benzenesulfonamide]

IC50: > 1000 nM
SMILES: O=C1NCCc2ccc(NS(=O)(=O)c3cccc(F)c3F)cc21 [Compound 54, 2,3-difluoro-N-(1-oxo-1,2,3,4-tetrahydroisoquinolin-7-yl)benzenesulfonamide]

IC50: < 100 nM
SMILES: O=C1CCCc2ccc(NS(=O)(=O)c3cccc(Cl)c3Cl)cc21 [Compound 55, 2,3-dichloro-N-(8-oxo-5,6,7,8-tetrahydronaphthalen-2-yl)benzenesulfonamide]

IC50: 100 to 500 nM
SMILES: O=c1[nH]cc(Br)c2ccc(NS(=O)(=O)c3cccc(Cl)c3Cl)cc12 [Compound 57, N-(4-bromo-1-oxo-1,2-dihydroisoquinolin-7-yl)-2,3-dichlorobenzenesulfonamide]

IC50: < 100 nM
SMILES: Cc1n[nH]c2cc(NS(=O)(=O)c3cccc(Cl)c3Cl)ccc12 [Compound 58, 2,3-dichloro-N-(3-methyl-1H-indazol-6-yl)benzenesulfonamide]

IC50: 100 to 500 nM
SMILES: O=S(=O)(Nc1ccc2csnc2c1)c1cccc(Cl)c1Cl [Compound 59, N-(benzo[c]isothiazol-6-yl)-2,3-dichlorobenzenesulfonamide]

IC50: > 1000 nM
SMILES: O=S(=O)(Nc1ccc2ccccc2n1)c1cccc(Cl)c1Cl [Compound 60, 2,3-dichloro-N-(quinolin-2-yl)benzenesulfonamide]

IC50: > 1000 nM
SMILES: Cc1cccc(F)c1S(=O)(=O)Nc1ccc2c(c1)C(=O)NCC2 [Compound 61, 2-fluoro-6-methyl-N-(1-oxo-1,2,3,4-tetrahydroisoquinolin-7-yl)benzenesulfonamide]

IC50: < 100 nM
SMILES: O=c1[nH]cc(F)c2ccc(NS(=O)(=O)c3cccc(Cl)c3Cl)cc12 [Compound 62, 2,3-dichloro-N-(4-fluoro-1-oxo-1,2-dihydroisoquinolin-7-yl)benzenesulfonamide]

IC50: 100 to 500 nM
SMILES: N#Cc1c[nH]c(=O)c2cc(NS(=O)(=O)c3cccc(Cl)c3Cl)ccc12 [Compound 63, 2,3-dichloro-N-(4-cyano-1-oxo-1,2-dihydroisoquinolin-7-yl)benzenesulfonamide]

IC50: 100 to 500 nM
SMILES: O=S(=O)(Nc1cccc(-c2ncco2)c1)c1cccc(Cl)c1Cl [Compound 64, 2,3-dichloro-N-(3-oxazol-2-ylphenyl)benzenesulfonamide]

IC50: > 1000 nM
SMILES: CC(C)c1c[nH]c(=O)c2cc(NS(=O)(=O)c3cccc(Cl)c3Cl)ccc12 [Compound 66, 2,3-dichloro-N-(4-isopropyl-1-oxo-1,2-dihydroisoquinolin-7-yl)benzenesulfonamide]

IC50: 100 to 500 nM
SMILES: COC(=O)Cc1ccc(NS(=O)(=O)c2cccc(Cl)c2Cl)cc1 [Compound 67]
